From PubChem BioAssay AID1645861 (Buhrlage Lab, Dana-Farber Cancer Institute and Novartis …, 2021)
Active and inactive are the calls of the source.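 How the source made its calls: active means compounds whose peak USP7 inhibition across the dose series reached 30% or more; inactive means the rest.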

Target: Ubiquitin carboxyl-terminal hydrolase 7 (Homo sapiens) (UniProt Q93009)
Experiment: Ubiquitin-specific protease 7 DUB inhibitors, concentration-effect, biochemical, validation of primary hits (AID 1645861)
Settings: purified USP7, Ub-rhodamine cleavage fluorescence, 60 min

Sequence of Ubiquitin carboxyl-terminal hydrolase 7 (Homo sapiens) (Q93009 whole entry, looked up): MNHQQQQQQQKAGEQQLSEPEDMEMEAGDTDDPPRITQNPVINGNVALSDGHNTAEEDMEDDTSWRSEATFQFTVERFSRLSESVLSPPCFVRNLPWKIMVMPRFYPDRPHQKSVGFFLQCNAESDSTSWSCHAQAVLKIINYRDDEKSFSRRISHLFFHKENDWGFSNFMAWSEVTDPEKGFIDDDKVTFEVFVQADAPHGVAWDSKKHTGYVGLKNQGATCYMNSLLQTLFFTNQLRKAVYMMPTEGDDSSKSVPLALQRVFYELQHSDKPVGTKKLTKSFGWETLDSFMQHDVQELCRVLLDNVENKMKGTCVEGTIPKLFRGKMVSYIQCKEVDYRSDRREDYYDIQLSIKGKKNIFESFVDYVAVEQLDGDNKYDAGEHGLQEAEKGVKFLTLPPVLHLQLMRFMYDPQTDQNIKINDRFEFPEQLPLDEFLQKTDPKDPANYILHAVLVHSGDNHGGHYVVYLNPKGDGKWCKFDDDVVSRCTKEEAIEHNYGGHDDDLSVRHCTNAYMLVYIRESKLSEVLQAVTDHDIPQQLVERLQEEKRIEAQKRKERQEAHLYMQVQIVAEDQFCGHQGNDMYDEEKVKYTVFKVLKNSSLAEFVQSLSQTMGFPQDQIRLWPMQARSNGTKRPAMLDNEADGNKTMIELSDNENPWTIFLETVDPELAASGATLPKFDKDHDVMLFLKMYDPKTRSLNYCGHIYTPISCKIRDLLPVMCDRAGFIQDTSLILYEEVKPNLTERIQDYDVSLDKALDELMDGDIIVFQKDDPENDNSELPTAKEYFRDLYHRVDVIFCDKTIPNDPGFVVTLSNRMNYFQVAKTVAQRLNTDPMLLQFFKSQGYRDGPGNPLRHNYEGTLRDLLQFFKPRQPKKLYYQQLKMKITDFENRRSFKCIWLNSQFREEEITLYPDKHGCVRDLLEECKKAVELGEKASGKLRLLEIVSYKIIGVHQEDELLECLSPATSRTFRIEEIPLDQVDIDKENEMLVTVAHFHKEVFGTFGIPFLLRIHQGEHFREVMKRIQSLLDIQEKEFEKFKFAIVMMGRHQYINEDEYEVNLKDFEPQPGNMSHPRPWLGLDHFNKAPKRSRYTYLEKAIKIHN

Structure (SMILES)	IC50
CC/C=C\C/C=C\C/C=C\CCCCCCCC(=O)O	25.6 µM
C=C1C=C(CCC(=O)O)C(=O)OC1/C=C/C=C/C (configuration not stated)	18.2 µM
Cc1ccc(NC(=O)Cn2cc(C(=O)c3ccccc3)c(=O)c3cc(C)ccc32)cc1	> 50 µM (inactive)
COc1ccc(NC(=O)CC(=O)c2ccc([N+](=O)[O-])cc2)cc1S(=O)(=O)Nc1ccc(Cl)cc1	> 50 µM (inactive)
O=c1[nH]c(C2CCN(S(=O)(=O)c3ccc(S(=O)(=O)NC4CCCCC4)cc3)CC2)nc2c1nnn2Cc1c(F)cccc1Cl	> 50 µM (inactive)
CCOC(=O)C1CCN(Cc2cc(=O)oc3cc(O)c(O)cc23)CC1	6.18 µM
CC1OC2CC(O)C1(O)C1=C2C(O)=C(C(N)=O)C(=N)C1=O (configuration not stated)	> 50 µM (inactive)
O=C(NC(Cc1ccccc1)c1nc2ccccc2[nH]1)C1CC1 (configuration not stated)	> 50 µM (inactive)
COc1ccccc1NC(=O)c1nc(-c2cn(-c3cccc(F)c3)nn2)no1	> 50 µM (inactive)
COc1cccc2cc(C(=O)Nc3nc(-c4ccncc4)cs3)oc12	18.3 µM
Cc1nn(-c2ccccc2)c2c1C1(C(=O)Nc3ccccc31)N1C(=N2)Sc2ccccc21 (configuration not stated)	3.39 µM
COc1ccc(NC(=O)Cn2cc(C(=O)c3ccccc3)c(=O)c3cc(Cl)ccc32)cc1OC	> 50 µM (inactive)
Cc1noc(-c2cc(=O)n(CC(=O)Nc3ccccc3Cl)c3ccccc23)n1	> 50 µM (inactive)
CC(=O)N1CCc2cc(S(=O)(=O)NC(Cc3ccccc3)C(=O)Nc3cccc(Cl)c3C)ccc21 (configuration not stated)	> 50 µM (inactive)
COC(=O)c1ccccc1NC(=O)Cn1c(=O)n(Cc2ccc(C(=O)NCc3ccco3)cc2)c(=O)c2ccccc21	> 50 µM (inactive)
CCN(CC)Cc1ccc(-c2nnc(-c3cnc4onc(C)c4c3)o2)o1	> 50 µM (inactive)
O=C(OC1CSc2nc3ccccc3n2C1)c1ccc([N+](=O)[O-])o1 (configuration not stated)	> 50 µM (inactive)
O=C(CCCCCn1c(=O)c2sccc2n(CC(=O)c2ccc(Cl)c(Cl)c2)c1=O)NCc1ccc2c(c1)OCO2	> 50 µM (inactive)
O=C(/C=C/c1c(F)cccc1Cl)N1CCc2ccccc2C1	> 50 µM (inactive)
CC(C)=CCC/C(C)=C/COc1ccc(/C=C2\C(=O)N(O)[C@@H](C)C(=O)N2O)cc1	> 50 µM (inactive)
O=C(Cn1c(=O)c2ccccc2n(CC(=O)Nc2ccc(Br)cc2)c1=O)NCc1ccco1	> 50 µM (inactive)
Nc1ccc(C(=O)OCC(=O)NC2CCCc3ccccc32)cc1[N+](=O)[O-] (configuration not stated)	> 50 µM (inactive)

Structure (SMILES)	IC50
O=C(CCCC(=O)N(c1ccc2c(c1)OCCO2)C(C(=O)NC1CCCCC1)c1ccc(F)cc1)Nc1ccccn1 (configuration not stated)	> 50 µM (inactive)
O=C(NCC1(c2ccccc2)CCC1)c1nc2n(n1)-c1ccccc1S(=O)(=O)N2	> 50 µM (inactive)
O=C1c2ccccc2-c2nnc(-c3ccncc3)cc21	> 50 µM (inactive)
Cc1cc(C(F)(F)F)n2nc(C3CCN(C(=O)c4cnn(C)c4C)C3)cc2n1 (configuration not stated)	> 50 µM (inactive)
Cc1nc(C(=O)NC2(O)C(=O)c3ccccc3C2=O)cs1	> 50 µM (inactive)
Cc1ccc(Nc2nc3c(S(=O)(=O)c4ccccc4)nnn3c3ccccc23)c(C)c1	48 µM
N#Cc1cn2c(nc1-c1ccc(Cl)cc1)nc1ccccc12	> 50 µM (inactive)
CC(=O)Nc1ccc(NC(=O)c2ccc3c(c2)CC(c2ccccc2)OC3=O)cc1 (configuration not stated)	> 50 µM (inactive)
O=C(Nc1cccc(Cl)c1)c1ncn2c1CNS(=O)(=O)c1ccccc1-2	> 50 µM (inactive)
O=C1Nc2ccccc2C(=O)C1C(c1ccc(Cl)cc1)C1C(=O)Nc2ccccc2C1=O (configuration not stated)	44.8 µM
COc1ccc(/C=C/C(=O)Nc2cccc(S(=O)(=O)Nc3ccccc3Cl)c2)c(OC)c1	> 50 µM (inactive)
CCCCCC1OC(=O)c2c(C)cccc2Oc2ccc(O)c(C=O)c2/C=C/C1O (configuration not stated)	> 50 µM (inactive)
Cn1c(=O)[nH]c2nncnc2c1=O	> 50 µM (inactive)
CCOC(=O)c1cc2c(ccn2-c2ccc(F)cc2)n1CC(=O)Nc1ccc2c(c1)OCCO2	> 50 µM (inactive)
Cc1ccc(C)c(NC(=O)Cn2cc(C(=O)C3CC3)c3ccccc32)c1	40.6 µM
C=C/C(=C/C(=O)C[C@H](C)C[C@@H](C)CC[C@H](O)[C@H](C)C(=O)CC(O)[C@H](C)[C@@H](C)OC(=O)C[C@@H](O)C1=C(C)C(=O)OC1=O)CC (some centres not stated)	43.1 µM
O=C(Nc1ccccc1)[C@@H]1[C@@H]2C(=O)N(c3ccc([N+](=O)[O-])cc3)C(=O)[C@@H]2[C@H]2c3ccccc3C=CN12	> 50 µM (inactive)
N#Cc1ccccc1NC(=O)c1cc2c(s1)-c1ccccc1S(=O)(=O)C2	> 50 µM (inactive)
Cc1ccc(Cn2cc(-c3noc(C(=O)Nc4cc(F)ccc4F)n3)nn2)cc1	> 50 µM (inactive)
Cc1nc(-c2noc(-c3cccc(F)c3)n2)cn1CC(=O)Nc1ccccc1	> 50 µM (inactive)
CCOC(=O)C1CCN(C(=O)c2ccc3c(c2)NC(=O)C2CCCN32)CC1 (configuration not stated)	> 50 µM (inactive)
O=C(NCCc1ccccc1)c1ccc2c(=O)n(Cc3ccco3)c(=O)n(Cc3cccc([N+](=O)[O-])c3)c2c1	13.4 µM

Structure (SMILES)	IC50
Cc1ccccc1NC(=O)c1nc(-c2cn(Cc3ccc(F)cc3)nn2)no1	> 50 µM (inactive)
CSC1SCC2C(=O)N(C)C(C(C)C(C)C)C(=O)OCC(NC(=O)c3cnc4ccccc4n3)C(=O)NC(C)C(=O)N(C)C1C(=O)N(C)C(C(C)C(C)C)C(=O)OCC(NC(=O)c1cnc3ccccc3n1)C(=O)NC(C)C(=O)N2C (configuration not stated)	> 50 µM (inactive)
O=C(COC(=O)c1ccc(NS(=O)(=O)c2ccc(F)c(F)c2)cc1)Nc1ccc(OCc2ccccc2)cc1	> 50 µM (inactive)
Cc1cc(C(=O)N2CCOCC2)c(C)n1-c1ccc(O)cc1	> 50 µM (inactive)
Cc1ccc(NC(=O)Nc2ccc(C)n(CC(=O)Nc3ccc(C)c(C)c3)c2=O)cc1	38.8 µM
COc1cccc(-n2cnc3cc(C(=O)NCCc4ccccc4)ccc3c2=O)c1	> 50 µM (inactive)
O=c1c(S(=O)(=O)c2cc(F)cc(F)c2)c[nH]c2cc(Cl)ccc12	> 50 µM (inactive)
Cc1ccc(NC(=O)Cc2nnc3c(-c4nc(C5CC5)no4)cccn23)cc1	35.5 µM
COC(=O)c1ccc(Nc2cc(C)nc3cc(C(F)(F)F)ccc23)cc1	> 50 µM (inactive)
CCc1nc(SCC(=O)Nc2ccc(Cl)c(Cl)c2)c2oc3ccccc3c2n1	> 50 µM (inactive)
O=C(O)c1cccc(NC(=O)C(Sc2cccc(NC(=O)c3cccc(Cl)c3)c2)c2ccccc2)c1 (configuration not stated)	45.8 µM
O=C(NC1(O)C(=O)c2ccccc2C1=O)c1cccc2c1-c1ccccc1C2=O	> 50 µM (inactive)
Cc1ccc2[nH]c3c(=O)n(Cc4ccc(N(C)C)cc4)cnc3c2c1	> 50 µM (inactive)
Cc1cccc(OCCn2c(CCNC(=O)C3CCCCC3)nc3ccccc32)c1	> 50 µM (inactive)
O=C(COc1ccccc1-c1nnc(-c2ccccc2)o1)NCCc1ccco1	> 50 µM (inactive)
Cc1ccc(-n2cc(C(=O)NCCCc3ccccc3)nn2)cc1	> 50 µM (inactive)
Cn1c(=O)c(C(=O)Nc2ccc(Br)cc2)nc2ccccc21	> 50 µM (inactive)
COc1ccc(-c2c(NC(=O)C3COc4ccccc4O3)n[nH]c2C)cc1OC (configuration not stated)	> 50 µM (inactive)
O=C1CC(O)C(C2=CC(=O)c3c(O)cccc3C2=O)O1 (configuration not stated)	32.9 µM
Cc1sc2ccn(C)c(=O)c2c1C(=O)NC1CCCC1	> 50 µM (inactive)
Cc1ccc(-c2nc(NC(=O)COc3ccc(Cl)cc3)no2)cc1	22.5 µM
COC(=O)c1ccccc1NC(=O)Cn1c(=O)n(CCCC(=O)NCc2ccco2)c(=O)c2ccccc21	> 50 µM (inactive)

Structure (SMILES)	IC50
C[C@@H]1CO[C@@H]2C3=C(C(=O)C=CC3=O)[C@H]3OC(=O)[C@@H]4CCC5[C@@H]1CCC52C34 (some centres not stated)	> 50 µM (inactive)
CC1(C)Cc2c(c(-c3ccco3)nc3sc4c(SCCCc5ccccc5)ncnc4c23)CO1	> 50 µM (inactive)
O=C(NCc1ccco1)c1ccc(Cn2c(=O)c3sccc3n(Cc3cc(=O)n4ccccc4n3)c2=O)cc1	> 50 µM (inactive)
COc1ccc(C2/C(=C(\O)c3ccccc3)C(=O)C(=O)N2c2nc3ccc(F)cc3s2)cc1 (configuration not stated)	23.7 µM
O=C(NCCc1nc2ccccc2n1CCOc1ccccc1Cl)C1CCCCC1	> 50 µM (inactive)
CC(C)CCCCCCCCCCC(=O)N(C)[C@H](CO)C(=O)N[C@H](C)C(=O)NCC(=O)N(C)C1C(=O)N[C@@H](C)C(=O)NC(C(=O)O)Cc2ccc(O)c(c2)-c2cc1ccc2O (some centres not stated)	> 50 µM (inactive)
Cc1ccnc(NS(=O)(=O)c2ccc(NC(=O)c3ccc(S(=O)(=O)N(C)Cc4ccccc4)cc3)cc2)n1	> 50 µM (inactive)
CCCCCCCc1cc(OC(=O)c2c(CCCCCCC)cc(O)cc2O[C@@H]2O[C@H](CO)[C@H](O)[C@H](O)[C@H]2O)cc(O)c1C(=O)O	21.4 µM
O=C(CCCn1c(=O)c2sccc2n(CC(=O)NCCC2=CCCCC2)c1=O)NCc1ccc2c(c1)OCO2	> 50 µM (inactive)
CCCCN1Cc2sc(NC(=O)Nc3ccccc3C)nc2C1=O	> 50 µM (inactive)
CCOc1ccc(-c2nnc(-c3cnc4onc(C5CCCC5)c4c3)o2)cc1	> 50 µM (inactive)
O=C(NCc1ccc2c(c1)OCO2)c1[nH]nc2c1COc1ccccc1-2	> 50 µM (inactive)
COc1ccc(C)cc1NC(=O)C1CC(=O)Nc2nc3ccccc3n21 (configuration not stated)	> 50 µM (inactive)
C/C=C/C=C/[C@@H]1Cc2cc(O)cc(O)c2O1	> 50 µM (inactive)
CC(C)(C)C(=O)[C@@H]1[C@@H](C(=O)c2ccc3c(c2)OCO3)[C@@]2(C(=O)Nc3ccccc32)[C@H]2c3ccccc3C=CN12	> 50 µM (inactive)
CC(C)[C@H]1CC[C@@]2(CO2)[C@H]2C(=O)OCC(C(=O)O)=C[C@H]12	> 50 µM (inactive)
O=C(Nc1ccccc1Cc1ccccc1)c1nc2n(n1)-c1ccccc1S(=O)(=O)N2	> 50 µM (inactive)
COc1cc(OC)c(NC(=O)c2cc(-c3ccccn3)n[nH]2)cc1Cl	> 50 µM (inactive)
CCCCCC(=O)C(CCCC)c1oc(=O)c(CCCC)c(O)c1CCCC (configuration not stated)	> 50 µM (inactive)
Cc1ccc(Cn2cc(C(=O)Nc3ccccc3C(N)=O)ccc2=O)cc1	> 50 µM (inactive)
CC1=CC(=O)C(C2=C(O)C(=O)C(C)=CC2=O)=C(O)C1=O	> 50 µM (inactive)
